Series [1] has as its system Rattus norvegicus. Particulars: for LD50 / LC50: acute.
A further series deals with Oryctolagus sp. Particulars: for LD50: acute, dermal.
A further series has as its system Mus musculus. Particulars: chronic; duration: 5 months; oral; diet; M; hepatic.
The test system of series [2] is Rattus norvegicus. As to conditions: reproduction developmental; oral; drinking water; F; reproductive effects.
In series [3] the test system is Rattus norvegicus. Particulars: reproduction developmental; duration: 364 days; oral; drinking water; M/F; Sprague-Dawley; reproductive.
The mark [4] stands for this setting: reproduction developmental, duration: 2 weeks, inhalation, Sprague-Dawley.

“And” between values parts separate entries of the source, which are not always exact repeats. Equal values may be shown once.

What is called LD50 is the dose expected to kill half of the subjects tested. The low end stands for greater toxicity, the high end for lower toxicity. For the compound `CC(C)COP(=S)([S-])OCC(C)C.CC(C)COP(=S)([S-])OCC(C)C.[Zn+2]`, the LD50 in the series with Rattus norvegicus [1] (oral, gavage, Wistar) was 3600 mg/kg; in the series with Oryctolagus sp. (New Zealand), more than 20000 mg/kg.

For `CCC(C)OP(=S)([S-])OC(C)CC(C)C.CCC(C)OP(=S)([S-])OC(C)CC(C)C.[Zn+2]` (stereo not given), the LD50 was ≥ 2900 mg/kg and ≤ 3400 mg/kg in the series on Rattus norvegicus [1] (oral, gavage, Sprague-Dawley); more than 5000 mg/kg with Oryctolagus sp. (New Zealand).

Take `Cc1ccc([N+](=O)[O-])cc1C` [1,2-Dimethyl-4-nitrobenzene]: the LD50 in the series on Rattus norvegicus [1] (oral, Wistar) was 2640 mg/kg; with Oryctolagus sp. (occlusive, New Zealand) it was more than 5700 mg/kg.

The term LOAEL denotes the lowest tested level that showed an adverse finding. `CNNC` [1,2-Dimethylhydrazine] displayed an LOAEL in the series on Mus musculus of 0.75 mg/kg-day.

In general, NOAEL refers to the highest tested level that showed no adverse finding. In the series on Rattus norvegicus [1] (oral, gavage, Sprague-Dawley), `O=[N+]([O-])c1ccc(Cl)cc1` [1-Chloro-4-nitrobenzene] had an LD50 of 530 mg/kg. Also, the NOAEL was 15 mg/kg-day with Rattus norvegicus [1] (developmental, duration: 14 days, oral, gavage, Sprague-Dawley); less than 5 mg/kg-day with Rattus norvegicus [1] (reproduction developmental, duration: 14 days, oral, gavage, F, Sprague-Dawley); 0.7 mg/kg-day with Rattus norvegicus [1] (reproduction developmental, duration: 167 days, oral, gavage, Sprague-Dawley, generation: F0); 5 mg/kg-day in the series on Rattus norvegicus [1] (reproduction developmental, duration: 167 days, oral, gavage, Sprague-Dawley, generation: F1); 5 mg/kg-day in the series with Rattus norvegicus [1] (reproduction developmental, duration: 167 days, oral, gavage, Sprague-Dawley, generation: F2); 15 mg/kg-day in the series on Oryctolagus sp. (developmental, duration: 13 hours, oral, gavage, New Zealand).

For `CCCCCCCCCCCCCCCCN.F` [1-Hexadecanamine, hydrofluoride], the NOAEL is 30 mg/kg-day in the series with Rattus norvegicus [1] (reproduction developmental, duration: 10 days, oral, gavage, F, Long-Evans); 6 mg/kg-day in the series on Rattus norvegicus [1] (reproduction developmental, oral, gavage, Long-Evans, generation: F0); 30 mg/kg-day in the series with Rattus norvegicus [1] (reproduction developmental, oral, gavage, Long-Evans, generation: F1). The compound further yielded an LOAEL in the series on Oryctolagus sp. (reproduction developmental, duration: 13 days, oral, gavage, F, New Zealand) of 1.2 mg/kg-day.

`CC(C)CC(=O)CC(C)CC(C)C` (stereo not given) [2,6,8-Trimethyl-4-nonanone]: the LD50 was 8470 mg/kg with Rattus norvegicus [1] (oral, gavage) and 9030 mg/kg with Oryctolagus sp. (occlusive). Also, the NOAEL in the series on Rattus norvegicus [1] (reproduction developmental, oral, gavage, CD, generation: F1) was found to be 300 mg/kg-day; with Rattus norvegicus [1] (reproduction developmental, oral, gavage, F, CD) it was 100 mg/kg-day.

On to `CC(=O)Oc1cccc(Oc2ccc(C(F)(F)F)cc2Cl)c1` [2-Chloro-1-(3-acetoxyphenoxy)-4-(trifluoromethyl)benzene], for which the LC50 in the series on Rattus norvegicus [1] (Inhalation, Wistar) was more than 4.13 µg/mL. Further, the LD50 with Rattus norvegicus [1] (oral, Crj:CD) is more than 500 mg/kg; in the series on Oryctolagus sp. (occlusive, New Zealand), more than 200 mg/kg.

In the series on Rattus norvegicus [2], `Oc1ccccc1Cl` [2-Chlorophenol] yielded an LOAEL of 50 mg/kg-day and a no observed adverse effect level (NOAEL) of 5 mg/kg-day. The compound further returned an NOAEL in the series with Rattus norvegicus [3] of 7.6 mg/kg-day.

As to `CCCCCCCCCCCCCOC(=O)CCCCC(=O)OCCCCCCCCCCCCC` [Bis(tridecyl) adipate], the LC50 in the series on Rattus norvegicus [1] (Inhalation, Sprague-Dawley) is more than 3.2 µg/mL. For the same compound, the LD50 in the series with Rattus norvegicus [1] (oral, Sherman Wistar) is more than 16000 mg/kg; in the series on Rattus norvegicus [1] (oral, gavage, Wistar) it was more than 15000 mg/kg; in the series on Oryctolagus sp. it was more than 2000 mg/kg; in the series with Oryctolagus sp. (semiocclusive, New Zealand) it was more than 5000 mg/kg. Besides, the NOAEL in the series on Rattus norvegicus [1] (reproduction developmental, duration: 19 days, dermal, Sprague-Dawley) was determined as 800 mg/kg-day; with Rattus norvegicus [1] (subchronic, duration: 13 weeks, dermal, Sprague-Dawley) it was 800 mg/kg-day.

With `CCCCOC(=O)CC` [Butyl propionate], the LD50 is more than 2000 mg/kg in the series on Rattus norvegicus [1] (dermal, occlusive, Fischer 344); more than 5000 mg/kg in the series on Rattus norvegicus [1] (oral, gavage, Fischer 344); 11000 mg/kg in the series on Rattus norvegicus [1] (oral, gavage, Sprague-Dawley); more than 14000 mg/kg with Rattus norvegicus [1] (oral, gavage, Wistar); more than 14000 mg/kg with Oryctolagus sp. (occlusive, New Zealand); more than 14000 mg/kg in the series on Oryctolagus sp. (occlusive, albino). Also, the LC50 in the series on Rattus norvegicus [1] (oral, gavage, Sprague-Dawley) was 12300 mg/kg. In addition, the NOAEL in the series with Rattus norvegicus [1] (developmental, duration: 10 days, inhalation, Sprague-Dawley) is not below 10600 mg/m3; in the series with Rattus norvegicus [1] (setting [4]), 2660 mg/m3. The LOAEL in the series with Rattus norvegicus [1] (setting [4]) came to 13300 mg/m3; in the series on Rattus norvegicus [1] (reproduction developmental, duration: 13 weeks, inhalation, Sprague-Dawley), 3990 mg/m3; in the series on Rattus norvegicus [1] (short-term, duration: 11 days, inhalation, Fischer 344), 4260 mg/m3.

`CCCCCCCCCc1cc2ccccc2c(S(=O)(=O)[O-])c1CCCCCCCCC.CCCCCCCCCc1cc2ccccc2c(S(=O)(=O)[O-])c1CCCCCCCCC.[Ca+2]` [Calcium bis(dinonylnaphthalenesulphonate)] showed an LC50 with Rattus norvegicus [1] (Inhalation, Wistar) of more than 18 µg/mL. Further, the LD50 is more than 5000 mg/kg in the series on Rattus norvegicus [1] (oral, gavage, Sprague-Dawley) and more than 20000 mg/kg with Oryctolagus sp. (New Zealand).

The values above are taken from EPA's ToxValDB 9.5.
